For one data set, the target named is TEM-1 β-lactamase (Escherichia coli, UniProt P62593). Description: β-lactamase colorimetry assay (TEM-1 inhibition). Type of data set: biochemical, E. coli. The following applies: for TEM-1 inhibition compared with T61-25: β-lactamase colorimetry assay. An excerpt:
The bacteria can express a β-lactamase and the antibacterial peptide can inhibit the ability of the β-lactamase to cleave a β-lactam ring. This can be measured using a beta lactamase inhibition assay like a commercially available beta lactamase inhibitor screening kit. These kits test the ability of a beta lactamase to hydrolyze a chromogenic substrate, which results in the generation of a colored product. The amount of color produced is directly proportional to the amount of beta-lactamase activity. In the presence of beta lactamase inhibitors, such as clavulanic acid or the antibacterial peptides described herein, the rate of substrate hydrolysis will decrease resulting in a decrease in the production of colored analyte. The non-peptide β-lactamase inhibitor can include clavulanate, clavulanic acid, sulbactam, taobactam, avibactam, relebacam, RG6080, or RPX7009.

A further data set concerns the target PBP2a (Staphylococcus aureus, UniProt P07944). Put plainly: PBP2a colorimetry assay. Type of data set: biochemical. An excerpt: Methicillin-resistant Staphylococcus aureus (MRSA) contains the mecA gene in a mobile genetic element found in all MRSA strains, which encodes penicillin-binding protein 2a (PBP2a). PBPs are membrane-bound enzymes that catalyze the transpeptidation reaction that is necessary for cross-linkage of peptidoglycan chains for cell wall formation and targeted by β-lactam. Because of the low affinity of PBP2a for all β-lactam antibiotics, it can substitute for other PBPs under high concentrations of f-lactam antibiotics. As a result. MRSA strains are highly resistant to β-lactam antibiotics.

The conditions of data set [1]: 25% human serum, 0 hours and 24 hours (FIG. 1).
For a further data set, the system named is SAP231. Description: Enhancement of cefazolin killing of MRSA. Type of data set: cell-based, Staphylococcus aureus. Particulars: at the test concentrations, 0 μg/ml peptide. As for the experimental part:
FIGS. 4A and 4B are graphs showing RI-D-BP100-T61-25 combined with cefazolin and tested against both SAP231 (FIG. 4A) and NRS384 strain (FIG. 4B).
Additionally, the peptide's potency at enhancing cefazolin killing of MRSA was also tested. Cefazolin is a cephalosporin, which are improved β-lactams developed to overcome some of the early penicillin resistance. Cefazolin is a first line therapy for the treatment of Methicillin-susceptible Staphylococcus aureus (MSSA) infections. […] RI-D-BP100-T61-25 was also combined with cefazolin and tested against both SAP231 (FIG. 4A) and NRS384 strain (FIG. 4B).

Molecules are shown by their SMILES. Square brackets hold non-standard residues; d marks the D form. Peptide text beside a SMILES is read from it.

TEM-1 β-lactamase, sequence (P62593 24-286 limits assumed): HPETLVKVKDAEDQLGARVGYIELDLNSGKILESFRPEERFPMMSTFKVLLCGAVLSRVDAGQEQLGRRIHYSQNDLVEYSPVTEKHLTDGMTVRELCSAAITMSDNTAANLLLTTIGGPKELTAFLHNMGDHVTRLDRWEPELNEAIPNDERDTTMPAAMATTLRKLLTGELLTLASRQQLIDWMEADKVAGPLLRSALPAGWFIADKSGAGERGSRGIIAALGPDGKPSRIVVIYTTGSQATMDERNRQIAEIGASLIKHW
PBP2a, sequence (P07944 whole entry): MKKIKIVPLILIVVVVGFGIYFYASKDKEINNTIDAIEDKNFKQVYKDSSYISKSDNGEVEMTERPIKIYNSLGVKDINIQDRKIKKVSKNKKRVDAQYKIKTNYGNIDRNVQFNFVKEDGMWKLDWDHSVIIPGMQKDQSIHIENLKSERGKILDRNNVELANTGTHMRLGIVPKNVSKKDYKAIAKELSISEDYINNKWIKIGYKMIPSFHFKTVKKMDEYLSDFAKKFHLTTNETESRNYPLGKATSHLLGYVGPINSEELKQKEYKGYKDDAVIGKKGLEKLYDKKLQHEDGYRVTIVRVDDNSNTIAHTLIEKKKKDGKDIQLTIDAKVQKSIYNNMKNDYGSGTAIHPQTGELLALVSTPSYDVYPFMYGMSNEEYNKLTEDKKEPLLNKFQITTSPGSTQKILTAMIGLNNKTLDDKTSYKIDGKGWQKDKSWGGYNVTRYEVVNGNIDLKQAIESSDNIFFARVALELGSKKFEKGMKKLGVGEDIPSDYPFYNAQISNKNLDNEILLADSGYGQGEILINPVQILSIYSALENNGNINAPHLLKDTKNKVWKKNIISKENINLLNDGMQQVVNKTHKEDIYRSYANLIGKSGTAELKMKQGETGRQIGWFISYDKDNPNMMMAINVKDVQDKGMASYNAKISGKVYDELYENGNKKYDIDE

As to `CC(C)C[C@H](NC(=O)[C@H](Cc1ccc(O)cc1)NC(=O)[C@H](NC(=O)[C@@H](N)CCCCN)[C@H](C)O)C(=O)N[C@@H](C)C(=O)N[C@@H](CCC(N)=O)C(=O)N[C@@H](C)C(=O)N[C@@H](C)C(=O)N[C@@H](C)C(=O)N[C@H](C(=O)NCC(=O)O)[C@@H](C)O` [D-T2], the “TEM-1 inhibition compared with T61-25” value at TEM-1 β-lactamase is “maintained comparable levels of TEM-1 inhibition as T61-25”.

Turning to `CC(C)C[C@@H](NC(=O)[C@@H](Cc1ccc(O)cc1)NC(=O)[C@H](NC(=O)[C@H](N)CCCCN)[C@H](C)O)C(=O)N[C@H](C)C(=O)N[C@H](CCC(N)=O)C(=O)N[C@H](C)C(=O)N[C@H](C)C(=O)N[C@H](C)C(=O)N[C@@H](C(=O)NCC(=O)O)[C@H](C)O` [D-T61-25], the “TEM-1 inhibition compared with T61-25” value on TEM-1 β-lactamase was “maintained comparable levels of TEM-1 inhibition as T61-25”.

For `CC(C)C[C@H](NC(=O)[C@H](Cc1ccc(O)cc1)NC(=O)[C@@H](NC(=O)[C@@H](N)CCCCN)[C@@H](C)O)C(=O)N[C@@H](C)C(=O)N[C@@H](CCC(N)=O)C(=O)N[C@@H](C)C(=O)N[C@@H](C)C(=O)N[C@@H](C)C(=O)N[C@H](C(=O)NCC(=O)O)[C@@H](C)O` [Inhibitor T61-25], the “inhibition of PBP2a activity” value on PBP2a is given as “capable of inhibiting PBP2a activity at μM range”.

For `CC[C@@H](C)[C@@H](NC(=O)[C@@H](CC(C)C)NC(=O)[C@@H](CCCCN)NC(=O)[C@@H](Cc1ccc(O)cc1)NC(=O)[C@@H](CC(C)C)NC(=O)[C@@H](CCCCN)NC(=O)[C@H](NC(=O)[C@@H](Cc1ccc(O)cc1)NC(=O)[C@@H](CC(C)C)NC(=O)[C@@H](C)NC(=O)[C@@H](CCC(N)=O)NC(=O)[C@@H](C)NC(=O)[C@@H](C)NC(=O)[C@@H](C)NC(=O)[C@H](NC(=O)CN)[C@H](C)O)[C@H](C)O)C(=O)N[C@H](CCCCN)C(=O)N[C@H](CCCCN)C(=O)N[C@H](Cc1ccccc1)C(=O)N[C@H](CC(C)C)C(=O)N[C@H](CCCCN)C(=O)N[C@H](CCCCN)C(=O)O` [RI-D-BP100-T61-25, dGdTdAdAdAdQdAdLdYdTdKdLdYdKdLdIdKdKdFdLdKdK] (H-G[dT][dA][dA][dA][dQ][dA][dL][dY][dT][dK][dL][dY][dK][dL][dI][dK][dK][dF][dL][dK][dK]-OH; N-terminus and C-terminus assumed), the serum stability result in data set [1] is reported as “better than the L-peptide BP100-T61-25”.

Usually Ki stands for a dissociation constant, usually derived from enzyme kinetics or from competition with a known ligand. For the molecule `CC(C)C[C@@H](NC(=O)[C@@H](C)NC(=O)[C@@H](CCC(N)=O)NC(=O)[C@@H](C)NC(=O)[C@@H](C)NC(=O)[C@@H](C)NC(=O)[C@H](NC(=O)CN)[C@H](C)O)C(=O)N[C@H](Cc1ccc(O)cc1)C(=O)N[C@@H](C(=O)N[C@H](CCCCN)C(=O)O)[C@H](C)O` [RI-D-T61-25, dGdTdAdAdAdQdAdLdYdTdK], on TEM-1 β-lactamase, affinity was put at a Ki of 880 ± 40 nM and the “TEM-1 inhibition compared with T61-25” value was “maintained comparable levels of TEM-1 inhibition as T61-25”.

Turning to `Cc1nnc(SCC2=C(C(=O)O)N3C(=O)[C@@H](NC(=O)Cn4cnnn4)[C@H]3SC2)s1` [cefazolin, Cefazolin], in the data set on SAP231, the “inhibition of SAP231 growth by cefazolin alone” value was “partially inhibited”.

For the origin of these results see patent US20260200978A1, “PEPTIDE INHIBITORS OF BETA-LACTAMASE” (priority 2022, published 2026).
